Results: patent US20220000893A1, “METHOD FOR TREATING T-HELPER TYPE 2 MEDIATED DISEASE” (|NSERM (INSTITUT NATIONAL DE LA SANTÉ ET DE LA RECHERCHE …, priority 2018, published 2022)

Test system: differentiating wild-type Th2 cells
Assay: Th2 cell differentiation and commitment in Th2-polarizing culture with non-specific SETDB1 inhibitors; cytokine production by intracellular staining and flow cytometry
Settings: naïve CD4 T cells, 6 days in Th2-polarizing conditions; 100 nM Mithramycine A for first 4 hours, 1 nM DZNep for first 24 hours; no pro-Th1 signal; vs DMSO; PMA/Ionomycine restimulation
Procedure: At the end of the culture, cytokine production was assessed by flow cytometry following T cell restimulation with PMA/Ionomycine in the presence of Monensin and intracellular staining.
Spleen and lymph nodes (mesenteric, inguinal, axillary, brachial and cervical) were collected and digested with Liberase TM and DNAse I (Sigma). Single-cell suspensions were then pooled and depleted of erythrocytes by osmotic shock (Red Blood Cell Lysis buffer, Sigma). […] Naïve CD4 T cells, defined as CD4+CD25-CD62LhighCD44low, were labeled with fluorochrome-conjugated monoclonal antibodies specific for CD4 (GK1.5, BD Biosciences), CD25 (PC61, BD Biosciences), CD62L (MEL14, Thermo Fischer Scientific) and CD44 (IM7, BD Biosciences), and purified from the enriched fraction of CD4 T cells by fluorescence-activated cell sorting (FACS Aria, BD Biosciences). […]
For intracellular cytokine staining, cells were first stimulated at 37° C. with 20 ng/mL phorbol 12-myristate 13-acetate (Millipore) and 1 μg/mL ionomycin (Millipore) for 5 hours in the presence of GolgiStop™ (BD Biosciences). […] Flow cytometry was performed by using a LSRII Fortessa cytometer (BD Biosciences) or MACSQuant analyzer 10 (Myltenyi) and the data were analyzed by using FlowJo software (Tree Star). […]

SMILES: Nc1nccc2c1ncn2[C@@H]1C=C(CO)[C@@H](O)[C@H]1O [DZNEP, 3-Deazaneplanocin A]
- IFN-γ production by Th2 cells (frequency of IFNg-producing cells): start to produce pro-Th1 factor, in particular IFN-γ
